Some test systems named below: A498; K562; HCT-116; A549; MCF7; DU-145; NCI-H522; SK-OV-3; CAKI-1; HL-60; OVCAR-5; 786-0; NCI-H460; BT-549; COLO 205; MDA-MB-435; U-251; MOLT-4; ACHN; IGROV-1.
Common to all, as to test: NCI-60 cell line screen, 48 h

Molecules are shown by their SMILES.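 These data come from cells grown in 96-well plates and exposed to compound for 48 hours at five concentrations. Abbreviation: GI50, concentration required for 50% inhibition of growth.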 The source made the active and inactive calls. Rule as the data show it: active = GI50 up to about 1.1 µM and inactive = higher.

Consider `C[C@@H]1CC[C@H]2[C@H](C)C(OC3O[C@@H]4O[C@@]5(C)CC[C@H]6[C@H](C)CC[C@@H]([C@@H]3C)[C@@]46O5)O[C@@H]3O[C@@]4(C)CC[C@@H]1[C@]32O4` (stereo partly specified), for which the GI50 with A498, in the assay with K562, in the assay with HCT-116, with A549, in the assay with MCF7 and in the assay with DU-145 was > 100 µM (inactive) throughout. In addition, the GI50 in the assay with NCI-H522, in the assay on SK-OV-3, in the assay with CAKI-1, with HL-60, with OVCAR-5 and in the assay on 786-0 was > 100 µM (inactive) throughout. In addition, the GI50 in the assay on NCI-H460, with BT-549, with COLO 205, in the assay on MDA-MB-435, in the assay on U-251 and in the assay on MOLT-4 was > 100 µM (inactive) throughout. The GI50 in the assay with ACHN was > 100 µM (inactive).

`C#CC1NC(=O)C1N(CC)CC` (stereo unspecified): the GI50 in the assay on A498, in the assay on K562, with HCT-116, with MCF7, in the assay with DU-145 and in the assay on NCI-H522 was > 100 µM (inactive) throughout. The GI50 was > 100 µM (inactive) in the assay on SK-OV-3; 86.5 µM (inactive) in the assay on CAKI-1; > 100 µM (inactive) in the assay with HL-60; > 100 µM (inactive) with OVCAR-5; > 100 µM (inactive) in the assay on 786-0; > 100 µM (inactive) in the assay with NCI-H460. The GI50 in the assay with IGROV-1, in the assay on BT-549, in the assay with COLO 205, in the assay with MDA-MB-435, with U-251 and in the assay with MOLT-4 was > 100 µM (inactive) each time. For the same molecule, the GI50 in the assay with ACHN is > 100 µM (inactive).

Consider `COc1ccc(/C=c2/[nH]c(=O)/c(=C\c3ccc(OCc4ccccc4)cn3)[nH]c2=O)cc1`, for which the GI50 is 33 µM (inactive) in the assay with A498; 31.1 µM (inactive) in the assay on K562; 48 µM (inactive) with HCT-116; 50.2 µM (inactive) with A549; 46 µM (inactive) with MCF7; > 100 µM (inactive) in the assay with DU-145. The GI50 in the assay with NCI-H522 was 71.4 µM (inactive); with SK-OV-3, 55 µM (inactive); in the assay with CAKI-1 it was > 100 µM (inactive); with HL-60 it was 6.93 µM (inactive); with OVCAR-5 it was > 100 µM (inactive); in the assay on 786-0, 49.9 µM (inactive). The GI50 was 63.8 µM (inactive) with NCI-H460; 45.3 µM (inactive) with BT-549; 32.2 µM (inactive) with COLO 205; 19.9 µM (inactive) in the assay on MDA-MB-435; 40.6 µM (inactive) with U-251; 43.6 µM (inactive) in the assay on MOLT-4. Besides, the GI50 in the assay on ACHN is > 100 µM (inactive).

Take `CN1CCN(C2=CC(=O)c3c(O)ccc(O)c3C2=O)CC1`: the GI50 in the assay with A498 was 1.54 µM (inactive); in the assay on K562 it was 0.347 µM (active); with HCT-116, 0.208 µM (active); in the assay with A549 it was 1.79 µM (inactive); with MCF7, 0.319 µM (active); with DU-145, 1.75 µM (inactive). Also, the GI50 is 1.71 µM (inactive) in the assay with NCI-H522; 5.02 µM (inactive) in the assay on SK-OV-3; 1.6 µM (inactive) in the assay on CAKI-1; 0.298 µM (active) in the assay on HL-60; 1.95 µM (inactive) with 786-0; 1.9 µM (inactive) in the assay with NCI-H460. For the same molecule, the GI50 in the assay with IGROV-1 is 1.64 µM (inactive); in the assay on BT-549, 1.76 µM (inactive); in the assay with COLO 205 it was 0.166 µM (active); with MDA-MB-435, 0.188 µM (active); in the assay on U-251, 1.61 µM (inactive); in the assay with MOLT-4, 1.01 µM (active). In addition, the GI50 in the assay with ACHN is 1.54 µM (inactive).

The record behind these values is ChEMBL document CHEMBL1201862, “PubChem BioAssay data set” (2004).
